# Experimental data published in US20240025906A1 (NEURON23, INC., priority 2022, published 2024).
# Like-named read-outs stand apart in the source and are kept apart here.
# Molecular target: T1, TYK2 JH2 (Homo sapiens, UniProt P29597)
# T1 construct: purchased DiscoverX (KINOMEscan KdELECT service); host or cells: E. coli BL21-derived (T7 phage display) or HEK-293
# Assay: TYK2 JH2 binding assay (KINOMEscan KdELECT competitive binding)
# Conditions: TYK2 JH2 domain
# Experimental: Assay A: TYK2 JH2 Binding Assay
# Competitive binding studies using TKY2 JH2-domain fragments were conducted by DiscoverX using the KINOMEscan (KdELECT) platform. Kinase-tagged T7 phage strains were prepared in an E. coli host derived from the BL21 strain. E. coli were grown to log-phase and infected with […] and incubated with shaking at 32° C. until lysis. The lysates were centrifuged and filtered to remove cell debris. The remaining kinases were produced in HEK-293 cells and subsequently tagged with DNA for qPCR detection. Streptavidin-coated magnetic beads were treated with biotinylated small molecule ligands for 30 minutes at room temperature to generate affinity resins for kinase assays. The liganded beads were blocked with excess biotin and washed with blocking buffer (SeaBlock (Pierce), 1% BSA, 0.05% Tween 20, 1 mM DTT) to remove unbound ligand and to reduce non-specific binding. Binding reactions were assembled by combining kinases, liganded affinity beads, and test compounds in 1× binding buffer (20% SeaBlock, 0.17×PBS, 0.05% Tween 20, 6 mM DTT). Test compounds were prepared as 111× stocks in 100% DMSO. Kds were determined using an 11-point 3-fold compound dilution series with three DMSO control points. All compounds for Kd measurements are distributed by acoustic transfer (non-contact dispensing) in 100% DMSO. The compounds were then diluted directly into the assays such that the final concentration of DMSO was 0.9%. All reactions performed in polypropylene 384-well plate. Each was a final volume of 0.02 ml. The assay plates were incubated at room temperature with shaking for 1 hour and the affinity beads were washed with wash buffer (1×PBS, 0.05% Tween 20). The beads were then re-suspended in elution buffer (1×PBS, 0.05% Tween 20, 0.5 μM non-biotinylated affinity ligand) and incubated at room temperature with shaking for 30 minutes. The kinase concentration in the eluates was measured by qPCR.
# [1] = KINOMEscan KdELECT (Assay A), read-out: Biochemical TYK2_JH2_Kd
# [2] = KINOMEscan KdELECT (Assay A), read-out: Biochemical TYK2_DiscoverX_JH2_BND_Kd
# T1 sequence (P29597 589-875 limits assumed): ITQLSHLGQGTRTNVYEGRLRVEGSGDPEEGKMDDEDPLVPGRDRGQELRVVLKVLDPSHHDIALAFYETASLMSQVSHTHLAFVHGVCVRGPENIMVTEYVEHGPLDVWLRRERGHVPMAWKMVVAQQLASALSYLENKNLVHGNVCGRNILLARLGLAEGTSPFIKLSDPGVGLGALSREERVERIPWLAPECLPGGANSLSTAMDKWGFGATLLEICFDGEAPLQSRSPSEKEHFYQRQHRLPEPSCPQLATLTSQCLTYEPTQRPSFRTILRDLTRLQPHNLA
Kd [1] [µM],SMILES,further results
0.1 to 1,"CNc1ncc(-n2ccc(=O)cc2)c2cc(NC(=O)C3CC3)ncc12 [Example 60, N-(8-(methylamino)-5-(4-oxopyridin-1(4H)-yl)-2,7-naphthyridin-3-yl)cyclopropanecarboxamide]",–
≤ 0.1,"CNc1ncc(-c2nc3c(F)cccn3n2)c2cc(NC(=O)C3CC3)ncc12 [Example 193, N-(5-(8-fluoro-[1,2,4]triazolo[1,5-a]pyridin-2-yl)-8-(methylamino)-2,7-naphthyridin-3-yl)cyclopropanecarboxamide]",–
≤ 0.1,"CNc1ncc(Oc2ccccn2)c2cc(NC(=O)C3CC3)ncc12 [Example 62, N-(8-(methylamino)-5-(pyridin-2-yloxy)-2,7-naphthyridin-3-yl)cyclopropanecarboxamide]",–
1 to 10,"CNc1ncc(N2Cc3cnccc3C2=O)c2cc(NC(=O)C3CC3)ncc12 [Example 59, N-(8-(methylamino)-5-(1-oxo-1,3-dihydro-2H-pyrrolo[3,4-c]pyridin-2-yl)-2,7-naphthyridin-3-yl)cyclopropanecarboxamide]",–
≤ 0.1,"CNc1ncc(-c2nc3cc(F)ccn3n2)c2cc(NC(=O)C3CC3)ncc12 [Example 194, N-(5-(7-fluoro-[1,2,4]triazolo[1,5-a]pyridin-2-yl)-8-(methylamino)-2,7-naphthyridin-3-yl)cyclopropanecarboxamide]",–
≤ 0.1,"CNc1ncc(-c2nc3cccc(F)n3n2)c2cc(NC(=O)C3CC3)ncc12 [Example 192, N-(5-(5-fluoro-[1,2,4]triazolo[1,5-a]pyridin-2-yl)-8-(methylamino)-2,7-naphthyridin-3-yl)cyclopropanecarboxamide]",–
1 to 10,"CNc1ncc(-n2ccccc2=O)c2cc(NC(=O)C3CC3)ncc12 [Example 61, N-(8-(methylamino)-5-(2-oxopyridin-1(2H)-yl)-2,7-naphthyridin-3-yl)cyclopropanecarboxamide]",–

# Second part, the compound before the results:
SMILES,Kd [1] [µM],further results
"CNc1ncc(C(=O)N2CCC(Oc3ccccc3)CC2)c2cc(NC(=O)C3CC3)ncc12 [Example 121, N-(8-(methylamino)-5-(4-phenoxypiperidine-1-carbonyl)-2,7-naphthyridin-3-yl)cyclopropanecarboxamide]",1 to 10,–
"CNc1ncc(-c2ccccc2)c2cc(NC3COC3)ncc12 [Example 97, N^1-methyl-N^6-(oxetan-3-yl)-4-phenyl-2,7-naphthyridine-1,6-diamine]",0.1 to 1,–
"CNc1ncc(-c2nc3cc(OC)ccc3o2)c2cc(NC(=O)C3CC3)ncc12 [Example 182, N-(5-(5-methoxybenzo[d]oxazol-2-yl)-8-(methylamino)-2,7-naphthyridin-3-yl)cyclopropanecarboxamide]",≤ 0.1,–
"CNc1ncc(CCc2cccc(S(C)(=O)=O)c2)c2cc(NC(=O)C3CC3)ncc12 [Example 838, N-(8-(methylamino)-5-(3-(methylsulfonyl)phenethyl)-2,7-naphthyridin-3-yl)cyclopropanecarboxamide]",–,Kd [2]: ≤ 0.1 µM
"CNc1ncc(-c2noc(C)n2)c2cc(NC(=O)C3CC3)ncc12 [Example 837, N-(5-(5-methyl-1,2,4-oxadiazol-3-yl)-8-(methylamino)-2,7-naphthyridin-3-yl)cyclopropanecarboxamide]",–,Kd [2]: ≤ 0.1 µM
"CNc1ncc(C(=O)N2CCCC2)c2cc(NC(=O)C3CC3)ncc12 [Example 840, N-(8-(methylamino)-5-(pyrrolidine-1-carbonyl)-2,7-naphthyridin-3-yl)cyclopropanecarboxamide]",–,Kd [2]: 0.1 to 1 µM
"CNc1ncc(-c2ccccc2)c2cc(NCc3ccccc3)ncc12 [Example 99, N^6-benzyl-N^1-methyl-4-phenyl-2,7-naphthyridine-1,6-diamine]",1 to 10,–
"CNc1ncc(-c2nc3cc(OCc4ccccc4)ccc3o2)c2cc(Nc3ccc(OCc4ccccc4)cn3)ncc12 [Example 430, 4-(5-(benzyloxy)benzo[d]oxazol-2-yl)-N^6-(5-(benzyloxy)pyridin-2-yl)-N^1-methyl-2,7-naphthyridine-1,6-diamine]",–,"Kd (DiscoverX KINOMEscan KdELECT (Assay A), read-out: Biochemical TYK2_DiscoverX_JH2_BND_Kd): 0.1 to 1 µM"
